Data set [1] relates to Mycobacterium tuberculosis. The data set is described as follows: Antitubercular activity against Mycobacterium tuberculosis H37Rv incubated for 7 days by microplate alamar blue assay. It counts as functional. Particulars: 168 h. Background: Resazurin is reduced to fluorescent resorufin, in cell work by metabolically active cells.
Data set [2] can be described thus: Cytotoxicity against mouse RAW264.7 cells assessed as reduction in cell viability at 25 ug/ml incubated for 48 hrs by MTT assay relative to control. It counts as cell-based. To be noted: read-out: INH. (In general: Tetrazolium dyes change colour on reduction, which living cells bring about.)
The test system of data set [3] is Mycobacterium tuberculosis. The data set is described as follows: Potency index, ratio of ethambutol MIC to test compound MIC for antitubercular activity against Mycobacterium tuberculosis H37Rv incubated for […] by microplate alamar blue assay. It counts as functional.

Structures are written as SMILES. Converted amounts (≈) assume the structure as drawn.

As usually defined, the MIC is the lowest concentration that inhibits growth of the organism. Low readings indicate greater potency, high ones weaker potency. As to `COc1ccc(C(=O)C2C(c3c(C)nn(-c4ccccc4)c3-n3cncn3)C3CCCN3C23C(=O)Nc2ccc(Br)cc23)cc1` (stereo unspecified), in data set [1], the MIC was found to be 25 µg/mL (≈ 37.6 µM). For the compound `COc1ccc(C(=O)C2C(c3c(C)nn(-c4ccccc4)c3-n3cncn3)C3CCCN3C23C(=O)Nc2ccc(Cl)cc23)cc1` (stereo unspecified), the cytotoxicity at 48 h, 25 ug/ml in data set [2] is 21.6%. This compound showed an MIC in data set [1] of 3.12 µg/mL (≈ 5.03 µM). Taken in the same sequence, the figures for `Cc1nn(-c2ccccc2)c(-n2cncn2)c1C1C2CCCN2C2(C(=O)Nc3ccccc32)C1C(=O)c1ccc(Br)cc1` (stereo unspecified) were 27.1% and 1.56 µg/mL (≈ 2.46 µM). On to `Cc1nn(-c2ccccc2)c(-n2cncn2)c1C1C2CCCN2C2(C(=O)Nc3ccc(Cl)cc32)C1C(=O)c1cccc([N+](=O)[O-])c1` (stereo unspecified), for which the cytotoxicity at 48 h, 25 ug/ml in data set [2] was determined as 19%. The MIC in data set [1] amounted to 6.25 µg/mL (≈ 9.84 µM). Compound `Cc1ccc(C(=O)C2C(c3c(C)nn(-c4ccccc4)c3-n3cncn3)C3CCCN3C23C(=O)Nc2ccc(Cl)cc23)cc1` (stereo unspecified) registered an MIC in data set [1] of 25 µg/mL (≈ 41.4 µM). As for `Cc1nn(-c2ccccc2)c(-n2cncn2)c1C1C2CCCN2C2(C(=O)Nc3ccc(Br)cc32)C1C(=O)c1ccc(Cl)cc1` (stereo unspecified), the cytotoxicity at 48 h, 25 ug/ml in data set [2] was determined as 22.4%. For the same compound, the MIC in data set [1] came out at 1.56 µg/mL (≈ 2.33 µM). On to `Cc1nn(-c2ccccc2)c(-n2cncn2)c1C1C2CCCN2C2(C(=O)Nc3ccc(Br)cc32)C1C(=O)c1cccc([N+](=O)[O-])c1` (stereo unspecified), for which the cytotoxicity at 48 h, 25 ug/ml in data set [2] worked out at 20.1%. For the same compound, the MIC in data set [1] stood at 6.25 µg/mL (≈ 9.2 µM). Turning to `Cc1nn(-c2ccccc2)c(-n2cncn2)c1C1C2CCCN2C2(C(=O)Nc3ccc(Br)cc32)C1C(=O)c1ccc([N+](=O)[O-])cc1` (stereo unspecified), the cytotoxicity at 48 h, 25 ug/ml in data set [2] came out at 26.4%. In addition, inhibition of growth in data set [1] (MIC) required 6.25 µg/mL (≈ 9.2 µM).

Regarding `Cc1nn(-c2ccccc2)c(-n2cncn2)c1C1C2CCCN2C2(C(=O)Nc3ccc(Cl)cc32)C1C(=O)c1ccccc1` (stereo unspecified), the cytotoxicity at 48 h, 25 ug/ml in data set [2] was determined as 19.8%. The Ratio in data set [3] was greater than 1. Besides, it took 0.78 µg/mL (≈ 1.32 µM) to inhibit growth in data set [1] (MIC). In the case of `Cc1ccc(C(=O)C2C(c3c(C)nn(-c4ccccc4)c3-n3cncn3)C3CCCN3C23C(=O)Nc2ccccc23)cc1` (stereo unspecified), the MIC in data set [1] is greater than 25 µg/mL. Take `Cc1nn(-c2ccccc2)c(-n2cncn2)c1C1C2CCCN2C2(C(=O)Nc3ccc(Br)cc32)C1C(=O)c1ccccc1` (stereo unspecified): in data set [2], the cytotoxicity at 48 h, 25 ug/ml was found to be 18.6%. In data set [1], this compound showed an MIC of 3.12 µg/mL (≈ 4.92 µM). For `Cc1nn(-c2ccccc2)c(-n2cncn2)c1C1C2CCCN2C2(C(=O)Nc3ccc(Cl)cc32)C1C(=O)c1ccc([N+](=O)[O-])cc1` (stereo unspecified), the cytotoxicity at 48 h, 25 ug/ml in data set [2] is 24.9%. The compound also gave an MIC in data set [1] of 1.56 µg/mL (≈ 2.46 µM). For `COc1ccc(C(=O)C2C(c3c(C)nn(-c4ccccc4)c3-n3cncn3)C3CCCN3C23C(=O)Nc2ccccc23)cc1` (stereo unspecified), in data set [1], the lowest concentration to inhibit growth (MIC) was 12.5 µg/mL (≈ 21.3 µM). For `Cc1nn(-c2ccccc2)c(-n2cncn2)c1C1C2CCCN2C2(C(=O)Nc3ccccc32)C1C(=O)c1ccc(Cl)cc1` (stereo unspecified), the cytotoxicity at 48 h, 25 ug/ml in data set [2] is 16.9%. In data set [1], inhibition of growth (MIC) required 6.25 µg/mL (≈ 10.6 µM).

For the compound `Cc1nn(-c2ccccc2)c(-n2cncn2)c1C1C2CCCN2C2(C(=O)Nc3ccc(Br)cc32)C1C(=O)c1ccc(Br)cc1` (stereo unspecified), the cytotoxicity at 48 h, 25 ug/ml in data set [2] worked out at 22%. The compound also displayed an MIC in data set [1] of 1.56 µg/mL (≈ 2.19 µM). `Cc1nn(-c2ccccc2)c(-n2cncn2)c1C1C2CCCN2C2(C(=O)Nc3ccccc32)C1C(=O)c1cccc([N+](=O)[O-])c1` (stereo unspecified): in data set [1], the MIC is greater than 25 µg/mL. Turning to `Cc1nn(-c2ccccc2)c(-n2cncn2)c1C1C2CCCN2C2(C(=O)Nc3ccccc32)C1C(=O)c1ccc([N+](=O)[O-])cc1` (stereo unspecified), in data set [2], the cytotoxicity at 48 h, 25 ug/ml amounted to 29.6%. The compound also had an MIC in data set [1] of 6.25 µg/mL (≈ 10.4 µM).

Take `Cc1nn(-c2ccccc2)c(-n2cncn2)c1C1C2CCCN2C2(C(=O)Nc3ccc(Cl)cc32)C1C(=O)c1ccc(Br)cc1` (stereo unspecified): the cytotoxicity at 48 h, 25 ug/ml in data set [2] is 26.4%. For the same compound, the lowest concentration to inhibit growth in data set [1] (MIC) was 1.56 µg/mL (≈ 2.33 µM). In data set [1], `Cc1nn(-c2ccccc2)c(-n2cncn2)c1C1C2CCCN2C2(C(=O)Nc3ccccc32)C1C(=O)c1ccccc1` (stereo unspecified) returned an MIC greater than 25 µg/mL. In turn, `CC[C@@H](CO)NCCN[C@@H](CC)CO` [ETHAMBUTOL] displayed an MIC in data set [1] of 1.56 µg/mL (≈ 7.64 µM). For `Cc1nn(-c2ccccc2)c(-n2cncn2)c1C1C2CCCN2C2(C(=O)Nc3ccc(Cl)cc32)C1C(=O)c1ccc(Cl)cc1` (stereo unspecified), in data set [2], the cytotoxicity at 48 h, 25 ug/ml came to 17.9%. The compound also came in with an MIC in data set [1] of 1.56 µg/mL (≈ 2.5 µM).

Source of the values: ChEMBL document CHEMBL4387723, “Ultrasonication-ionic liquid synergy for the synthesis of new potent anti-tuberculosis 1,2,4-triazol-1-yl-pyrazole based spirooxindolopyrrolizidines” (Bioorg Med Chem Lett, 2019).
